From patent US4075341A, “2-Substituted phenyl-5-triazols [5,1-a] isoquinoline compounds” (Gruppo Lepetit S.p.A., priority 1975, dated 1978)
Read-outs that look alike come from different tables or passages of the source.

Assays:
conditioned rats = experiment: secondary conditioned avoidance response test (anti-anxiety effect); type: in vivo
Procedure: The CNS depressant properties were investigated according to the Irwin method, and in particular, the anti-anxiety effect was evaluated on the basis of the secondary conditioned avoidance response test. A specific anti-anxiety effect was evidenced by administering to conditioned rats doses of 15-60 mg./kg. i.p. of representative compounds of the invention.
The following table indicates the ratio of the rats which were deconditioned after administration of a predetermined amount of a representative compound: […]

[1] = acute toxicity LD50 in mice; conditions: mouse, in vivo, ip; i.p. in mice
[2] = system: female Syrian golden hamsters; experiment: anti-fertility activity in pregnant female Syrian golden hamsters; type: in vivo; parameters: key to anti-fertility activity (active according to criteria): active: a reduction of live fetuses in at least 60% of the treated animals and the presence of implantation sites proves the animal to have been pregnant; conditions: for anti-fertility activity (active according to criteria): 10 mg./kg. s.c. daily for 5 days, days 4-8 of pregnancy, autopsy day 14; for ED50: Mesocricetus auratus, sc, read-out: ED50 (dose showing 100% effectiveness in 50% of the treated animals)
Procedure: Representative experiments for assessing anti-fertility activity are carried out with female Syrian golden hamsters weighing 100 to 130 g. The animals are mated and the presence of sperm in the vagina is taken as evidence of mating. The day sperm is detected is considered day one of pregnancy, since in our laboratories and those of other investigators 90 to 100% of animals that mate as evidenced by vaginal sperm are pregnant. Pregnancy is later confirmed at the time of autopsy by presence of fetuses or implantation sites in the uterus. Even if an animal aborts the fetus, implantation scars still remain as evidence that the animal had been pregnant. Test compounds dissolved or suspended in sesame oil are administered subcutaneously in doses of 10 mg./kg. daily for 5 days beginning on day 4 of pregnancy (days 4-8). The animals are autopsied on day 14 of pregnancy and the uteri are examined for evidence of pregnancy (implantation sites, fetal resorptions or live fetuses), hemorrage, and evidence of abnormalities of the uterus, placenta or fetuses. A compound is considered to be active if there is a reduction of live fetuses in at least 60% of the treated animals and the presence of implantation sites proves the animal to have been pregnant. […] The compounds are then studied for dose-activity relationship and toxicity or other biological activities. Compounds that show 100% effectiveness (absence of live fetuses in 100% of animals) with minimal side effects or toxicity are studied in depth.
The ED50 values identify the dose levels which show 100% effectiveness (defined as above) in 50% of the treated animals.

female beagle dogs = experiment: anti-fertility activity in pregnant female beagle dogs; type: in vivo; conditions: Canis lupus familiaris, sc; single subcutaneous dose on 20th day of pregnancy, opened on 35th day; read-out: Minimal effective doses (100% effectiveness, absence of live fetuses in 100% of the animals)
Source text: In performing experiments with dogs, female beagle dogs weighing approximately 10 kg. are mated and on the 20th day of pregnancy the animals are given single subcutaneous doses of the compounds that were active in both the rat and the hamster. On the 35th day of pregnancy, the animals are surgically opened and the uteri are examined for presence of fetuses, placental tissue etc. Following Table III reports the minimal doses of representative compounds showing a 100% effectiveness (absence of live fetuses in 100% of the animals).

[3] = system: carrageenin induced edema; experiment: carrageenin test in rats (anti-inflammatory activity); type: in vivo; conditions: Rattus norvegicus, po; 50 mg./kg. p.o.
Source text: The anti-inflammatory activity of some inventive compounds was evidenced by means of the carrageenin test in rats.

[4] = Table I, 5,6-dihydro compounds, hamsters
[5] = Table II, 5,6-unsaturated compounds, similar experiments

| Structure (SMILES) | anti-fertility activity (active according to criteria) [2] | ED50 [2, 4] [mg/kg] | also measured |
| --- | --- | --- | --- |
| N=C(NN1CCc2ccccc2C1=O)c1cccc([N+](=O)[O-])c1 [2-(m-Nitrobenzimidoylamino)-3,4-dihydro-1-(2H) isoquinolinone] | – | – | Deconditioned/treated (conditioned rats; dose 30 mg./kg. i.p.): 6/10; Deconditioned/treated (conditioned rats; dose 60 mg./kg. i.p.): 10/10; LD50 [1]: > 600 mg/kg |
| N=C(NN1CCc2ccccc2C1=O)c1ccccc1 [2-Benzimidoylamino-3,4-dihydro-1 (2H)-isoquinolinone] | – | – | Deconditioned/treated (conditioned rats; dose 60 mg./kg. i.p.): 10/10; LD50 [1]: > 600 mg/kg |
| CCOC(=O)NC(=S)Nc1nc2n(n1)CCc1ccccc1-2 [2-carbethoxythioureido-5,6-dihydro-s-triazole-[5,1-a]isoquinoline] | – | – | Deconditioned/treated (conditioned rats; dose 60 mg./kg. i.p.): 7/10; LD50 [1]: > 600 mg/kg |
| COc1cccc(-c2nc3n(n2)CCc2ccccc2-3)c1 [Example 1, 2-(m-Methoxyphenyl)-5,6-dihydro-s-triazolo[5,1-a]isoquinoline] | active | 0.1 | minimal effective dose (female beagle dogs): 12.5 mg/kg |
| Cc1ccccc1-c1nc2n(n1)CCc1ccccc1-2 [Example 2, 2-(o-toluyl)-5,6-dihydro-s-triazolo[5,1-a]isoquinoline, reference compound] | – | > 10 | – |
| Cc1cccc(-c2nc3n(n2)CCc2ccccc2-3)c1 [Example 3, 2-(m-toluyl)-5,6-dihydro-s-triazolo[5,1-a]isoquinoline, reference compound] | – | > 10 | – |
| Cc1ccc(-c2nc3n(n2)CCc2ccccc2-3)cc1 [Example 4, 2-(p-toluyl)-5,6-dihydro-s-triazolo[5,1-a]isoquinoline, reference compound] | – | 2 | – |
| c1ccc(-c2nc3n(n2)CCc2ccccc2-3)cc1 [Example 5, 2-phenyl-5,6-dihydro-s-triazolo[5,1-a]isoquinoline, reference compound] | – | 1 | – |
| Clc1cccc(-c2nc3n(n2)CCc2ccccc2-3)c1 [Example 7, 2-(m-chlorophenyl)-5,6-dihydro-s-triazolo[5,1-a]isoquinoline] | active | 0.75 | – |
| Clc1ccc(-c2nc3n(n2)CCc2ccccc2-3)cc1 [Example 8, 2-(p-chlorophenyl)-5,6-dihydro-s-triazolo[5,1-a]isoquinoline] | active | 0.065 | – |
| Cc1nc2n(n1)CCc1ccccc1-2 [Example 9, 2-methyl-5,6-dihydro-s-triazolo[5,1-a]isoquinoline, reference compound] | – | > 10 | – |
| c1cncc(-c2nc3n(n2)CCc2ccccc2-3)c1 [Example 10, 2-(3-pyridyl)-5,6-dihydro-s-triazolo[5,1-a]isoquinoline] | – | – | Deconditioned/treated (conditioned rats; dose 15 mg./kg. i.p.): 10/10; LD50 [1]: > 400 mg/kg |
| COc1cc(OC)cc(-c2nc3n(n2)CCc2ccccc2-3)c1 [Example 12, 2-(3,5-dimethoxyphenyl)-5,6-dihydro-s-triazolo[5,1-a]isoquinoline] | active | – | – |
| CCOc1cccc(-c2nc3n(n2)CCc2ccccc2-3)c1 [Example 13, 2-(m-ethoxyphenyl)-5,6-dihydro-s-triazolo[5,1-a]isoquinoline] | active | 0.03 | minimal effective dose (female beagle dogs): 6.25 mg/kg |
| CCCOc1cccc(-c2nc3n(n2)CCc2ccccc2-3)c1 [Example 14, 2-(m-propoxyphenyl)-5,6-dihydro-s-triazolo[5,1-a]isoquinoline] | active | 0.11 | minimal effective dose (female beagle dogs): 6.25 mg/kg |
| c1ccc(COc2cccc(-c3nc4n(n3)CCc3ccccc3-4)c2)cc1 [Example 15, 2-(m-benzyloxyphenyl)-5,6-dihydro-s-triazolo[5,1-a]isoquinoline] | active | – | – |
| c1ccc2c(c1)CCn1nc(-c3ccc4c(c3)OCO4)nc1-2 [Example 16, 2-(3,4-methylenedioxyphenyl)-5,6-dihydro-s-triazolo[5,1-a]isoquinoline] | active | – | – |
| Fc1cccc(-c2nc3n(n2)CCc2ccccc2-3)c1 [Example 19, 2-(m-fluorophenyl)-5,6-dihydro-s-triazolo[5,1-a]isoquinoline] | active | – | – |

| Structure (SMILES) | anti-fertility activity (active according to criteria) [2] | ED50 [2, 4] [mg/kg] | also measured |
| --- | --- | --- | --- |
| CC(C)Oc1cccc(-c2nc3n(n2)CCc2ccccc2-3)c1 [Example 21, 2-(m-isopropoxyphenyl)-5,6-dihydro-s-triazolo[5,1-a]isoquinoline] | active | 0.25 | – |
| CCCCCOc1cccc(-c2nc3n(n2)CCc2ccccc2-3)c1 [Example 22, 2-(m-pentyloxyphenyl)-5,6-dihydro-s-triazolo[5,1-a]isoquinoline] | active | – | – |
| c1cc(OC2CCCC2)cc(-c2nc3n(n2)CCc2ccccc2-3)c1 [Example 23, 2-(m-cyclopentyloxyphenyl)-5,6-dihydro-s-triazolo[5,1-a]isoquinoline] | active | – | – |
| C=CCOc1cccc(-c2nc3n(n2)CCc2ccccc2-3)c1 [Example 24, 2-(m-allyloxyphenyl)-5,6-dihydro-s-triazolo[5,1-a]isoquinoline] | active | 0.18 | minimal effective dose (female beagle dogs): 6.25 mg/kg |
| C#CCOc1cccc(-c2nc3n(n2)CCc2ccccc2-3)c1 [Example 25, 2-(m-propargyloxyphenyl)-5,6-dihydro-s-triazolo[5,1-a]isoquinoline] | active | 0.21 | – |
| CN(C)c1ccc(-c2nc3n(n2)CCc2ccccc2-3)cc1 [Example 27, 2-(p-dimethylaaminophenyl)-5,6-dihydro-s-triazolo[5,1-a]isoquinoline] | active | – | – |
| Fc1ccc(-c2nc3n(n2)CCc2ccccc2-3)cc1 [Example 28, 2-(p-fluorophenyl)-5,6-dihydro-s-triazolo[5,1-a]isoquinoline] | active | 0.1 | – |
| CCCCOc1cccc(-c2nc3n(n2)CCc2ccccc2-3)c1 [Example 31, 2-(m-butoxyphenyl)-5,6-dihydro-s-triazolo[5,1-a]isoquinoline] | active | – | – |
| Nc1nc2n(n1)CCc1ccccc1-2 [Example 32] | – | – | Deconditioned/treated (conditioned rats; dose 30 mg./kg. i.p.): 6/10; LD50 [1]: > 600 mg/kg |
| CC(=O)N(C(C)=O)c1nc2n(n1)CCc1ccccc1-2 [Example 34, 2-Diacetylamino-5,6-dihydro-s-triazolo[5,1-a]isoquinoline] | – | – | Deconditioned/treated (conditioned rats; dose 60 mg./kg. i.p.): 6/9; LD50 [1]: > 600 mg/kg |
| CC(=O)Nc1nc2n(n1)CCc1ccccc1-2 [Example 35, 2-Acetamido-5,6-dihydro-s-triazolo[5,1-a]isoquinoline] | – | – | Deconditioned/treated (conditioned rats; dose 60 mg./kg. i.p.): 7/10; LD50 [1]: > 400 mg/kg |
| Sc1nc2n(n1)CCc1ccccc1-2 [Example 38, 2-Sulfhydryl-5,6-dihydro-s-triazolo[5,1-a]isoquinoline] | – | – | inhibition at 50 mg/kg [3]: ~35% |
| CN(C)c1cccc(-c2nc3n(n2)CCc2ccccc2-3)c1 [Example 41, 2-(m-Dimethylaminophenyl)-5,6-dihydro-s-triazolo[5,1-a]isoquinoline] | active | – | – |
| Oc1cccc(-c2nc3n(n2)CCc2ccccc2-3)c1 [Example 42, 2-(3-Hydroxyphenyl)-5,6-dihydro-s-triazolo[5,1-a]isoquinoline] | active | – | – |
| COc1cccc(-c2nc3c4ccccc4ccn3n2)c1 [Example 58, 2-(m-Methoxyphenyl)-s-triazolo[5,1-a]isoquinoline] | active | – | ED50 [2, 5]: 0.1 mg/kg |
| c1ccc(-c2nc3c4ccccc4ccn3n2)cc1 [Example 59, 2-Phenyl-s-triazolo[5,1-a]isoquinoline, reference compound] | – | – | ED50 [2, 5]: 0.25 mg/kg |
| Clc1ccc(-c2nc3c4ccccc4ccn3n2)cc1 [Example 61, 2-(p-Chlorophenyl)-s-triazolo[5,1-a]isoquinoline] | active | – | ED50 [2, 5]: 0.08 mg/kg |
